Assay [1] has as its target T1, human vasopressin V1b receptor (Homo sapiens, UniProt P47901).
T1 sequence (P47901 1-424): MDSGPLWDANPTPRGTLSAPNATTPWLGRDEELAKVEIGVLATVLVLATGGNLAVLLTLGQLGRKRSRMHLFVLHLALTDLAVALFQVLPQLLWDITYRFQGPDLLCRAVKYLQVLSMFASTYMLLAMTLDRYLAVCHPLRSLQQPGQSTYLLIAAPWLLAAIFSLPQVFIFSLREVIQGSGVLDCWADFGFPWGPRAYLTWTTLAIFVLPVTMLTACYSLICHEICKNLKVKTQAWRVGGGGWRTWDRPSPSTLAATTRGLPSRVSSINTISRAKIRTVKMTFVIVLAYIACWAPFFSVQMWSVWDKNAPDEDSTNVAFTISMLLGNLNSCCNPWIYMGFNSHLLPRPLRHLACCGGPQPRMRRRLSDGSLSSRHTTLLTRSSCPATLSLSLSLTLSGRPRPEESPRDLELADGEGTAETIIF
The assay is described as follows: biochemical.

The target in assay [2] is human vasopressin V1a receptor (Homo sapiens, UniProt P37288). The assay is described as follows: Vasopressin V1a receptor binding assay (125I-AVP displacement, CHO-K1 membranes). As to conditions: selectivity quotient, human V1a vs human V1b receptor binding.

19 molecules from patent US9840495B2, “Oxindole derivatives carrying a piperidyl-substituted azetidinyl substituent and use thereof for treating vasopressine-related diseases” (AbbVie Deutschland GmbH & Co. KG, priority 2013, dated 2017) can be followed below.

Bounds are passed on as bounds.

Chain of human vasopressin V1a receptor (P37288 whole entry): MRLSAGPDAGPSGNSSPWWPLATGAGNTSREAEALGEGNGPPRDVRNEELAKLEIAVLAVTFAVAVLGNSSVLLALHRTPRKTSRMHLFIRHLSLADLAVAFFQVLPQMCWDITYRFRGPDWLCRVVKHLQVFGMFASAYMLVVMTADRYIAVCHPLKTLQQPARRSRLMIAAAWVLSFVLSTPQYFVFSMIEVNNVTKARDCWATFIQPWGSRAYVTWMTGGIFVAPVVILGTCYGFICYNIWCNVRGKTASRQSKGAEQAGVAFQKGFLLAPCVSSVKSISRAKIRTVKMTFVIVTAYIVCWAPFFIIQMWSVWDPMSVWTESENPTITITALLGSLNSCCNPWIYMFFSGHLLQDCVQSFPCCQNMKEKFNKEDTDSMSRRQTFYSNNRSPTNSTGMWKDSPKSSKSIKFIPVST

The term Ki denotes the dissociation constant of the complex between target and ligand, obtained from inhibition or displacement. Read a low Ki as a stronger hold on the target. Take `CCOc1ncccc1[C@]1(NC(=O)N2CC(N3CCC(N4CCOCC4)CC3)C2)C(=O)N(S(=O)(=O)c2ccc(OC)cc2OC)c2ccc(C#N)cc21` [Example 1, (S)—N-(5-cyano-1-((2,4-dimethoxyphenyl)sulfonyl)-3-(2-ethoxypyridin-3-yl)-2-oxoindolin-3-yl)-3-(4-morpholinopiperidin-1-yl)azetidine-1-carboxamide]: the Ki in assay [1] is less than 1 nM. Also, the “Ki(h-V1a)/Ki(h-V1b)” value in assay [2] is given as “+++ (>75)”.
In the same order, the values of `CCOc1ncccc1[C@]1(NC(=O)N2CC(N3CCC(N(C)C4COC4)CC3)C2)C(=O)N(S(=O)(=O)c2ccc(OC)cc2OC)c2ccc(C#N)cc21` [Example 2, (S)—N-(5-cyano-1-((2,4-dimethoxyphenyl)sulfonyl)-3-(2-ethoxypyridin-3-yl)-2-oxoindolin-3-yl)-3-(4-(methyl(oxetan-3-yl)amino)piperidin-1-yl)azetidine-1-carboxamide] are less than 1 nM and “+++ (>75)”.
Take `COc1ccc(S(=O)(=O)N2C(=O)[C@@](NC(=O)N3CC(N4CCC(N5CCOCC5)CC4)C3)(c3cccnc3OC)c3cc(C#N)ccc32)c(OC)c1` [Example 3, (S)—N-(5-Cyano-1-((2,4-dimethoxyphenyl)sulfonyl)-3-(2-methoxypyridin-3-yl)-2-oxoindolin-3-yl)-3-(4-morpholinopiperidin-1-yl)azetidine-1-carboxamide]: the inhibition constant Ki in assay [1] is less than 1 nM. Also, the “Ki(h-V1a)/Ki(h-V1b)” value in assay [2] is “+++ (>75)”.
The like results for `COc1ccc(S(=O)(=O)N2C(=O)[C@@](NC(=O)N3CC(N4CCC(N(C)C5COC5)CC4)C3)(c3cccnc3OC)c3cc(C#N)ccc32)c(OC)c1` [Example 4, (S)—N-(5-Cyano-1-((2,4-dimethoxyphenyl)sulfonyl)-3-(2-methoxypyridin-3-yl)-2-oxoindolin-3-yl)-3-(4-(methyl(oxetan-3-yl)amino)piperidin-1-yl)azetidine-1-carboxamide] were, in that order, 1 to 10 nM and “+++ (>75)”.
In the same order, the values of `CCOc1ncccc1[C@]1(NC(=O)N2CC(N3CCC(N(CC)C4COC4)CC3)C2)C(=O)N(S(=O)(=O)c2ccc(OC)cc2OC)c2ccc(C#N)cc21` [Example 5, (S)—N-(5-Cyano-1-((2,4-dimethoxyphenyl)sulfonyl)-3-(2-ethoxypyridin-3-yl)-2-oxoindolin-3-yl)-3-(4-(ethyl(oxetan-3-yl)amino)piperidin-1-yl)azetidine-1-carboxamide] are 1 to 10 nM and “+++ (>75)”.
In turn, `CCOc1ncccc1[C@]1(NC(=O)N2CC(N3CCC(N4CCC5(CC4)COC5)CC3)C2)C(=O)N(S(=O)(=O)c2ccc(OC)cc2OC)c2ccc(C#N)cc21` [Example 6, (S)-3-(4-(2-Oxa-7-Azaspiro[3.5]nonan-7-yl)piperidin-1-yl)-N-(5-cyano-1-((2,4-dimethoxyphenyl)sulfonyl)-3-(2-ethoxypyridin-3-yl)-2-oxoindolin-3-yl)azetidine-1-carboxamide] yielded an inhibition constant (Ki) in assay [1] of 1 to 10 nM. In assay [2], the “Ki(h-V1a)/Ki(h-V1b)” value is on record as “+++ (>75)”.
In the same order, the values of `CCOc1ncccc1[C@]1(NC(=O)N2CC(N3CCC(N4CCOCC4)CC3)C2)C(=O)N(S(=O)(=O)c2ccc(OC)cc2OC)c2cc(F)c(F)cc21` [Example 8, (S)—N-(1-((2,4-Dimethoxyphenyl)sulfonyl)-3-(2-ethoxypyridin-3-yl)-5,6-difluoro-2-oxoindolin-3-yl)-3-(4-morpholinopiperidin-1-yl)azetidine-1-carboxamide] are less than 1 nM and “++ (25-75)”.
In the same order, the values of `CCOc1ncccc1[C@]1(NC(=O)N2CC(N3CCC(N4CCOCC4)CC3)C2)C(=O)N(S(=O)(=O)c2ccc(OC)cc2OC)c2cc(F)c(C#N)cc21` [Example 9, (S)—N-(5-Cyano-1-((2,4-dimethoxyphenyl)sulfonyl)-3-(2-ethoxypyridin-3-yl)-6-fluoro-2-oxoindolin-3-yl)-3-(4-morpholinopiperidin-1-yl)azetidine-1-carboxamide] are less than 1 nM and “++ (25-75)”.
The like results for `CCOc1ncccc1[C@]1(NC(=O)N2CC(N3CCC(N(C)C4COC4)CC3)C2)C(=O)N(S(=O)(=O)c2ccc(OC)cc2OC)c2cc(F)c(C#N)cc21` [Example 10, (S)—N-(5-Cyano-1-((2,4-dimethoxyphenyl)sulfonyl)-3-(2-ethoxypyridin-3-yl)-6-fluoro-2-oxoindolin-3-yl)-3-(4-(methyl(oxetan-3-yl)amino)piperidin-1-yl)azetidine-1-carboxamide] were, in that order, less than 1 nM and “+++ (>75)”.
On to `CCOc1ncccc1[C@]1(NC(=O)N2CC(N3CCC(N(C)C4COC4)CC3)C2)C(=O)N(S(=O)(=O)c2ccc(OC)cc2OC)c2cc(F)c(F)cc21` [Example 11, N-[(3S)-1-[(2,4-Dimethoxyphenyl)sulfonyl]-3-(2-ethoxypyridin-3-yl)-5,6-difluoro-2-oxo-2,3-dihydro-1H-indol-3-yl]-3-{4-[methyl(oxetan-3-yl)amino]piperidin-1-yl}azetidine-1-carboxamide], for which, in assay [1], the Ki lay within 1 to 10 nM. Besides, in assay [2], the “Ki(h-V1a)/Ki(h-V1b)” value is recorded as “++ (25-75)”.
In assay [1], `CCOc1ncccc1[C@]1(NC(=O)N2CC(N3CCC(N4CCOCC4)CC3)C2)C(=O)N(S(=O)(=O)c2ccc(OC)cc2OC)c2ccc(Cl)cc21` [Example 13, (S)—N-(5-Chloro-1-((2,4-dimethoxyphenyl)sulfonyl)-3-(2-ethoxypyridin-3-yl)-2-oxoindolin-3-yl)-3-(4-morpholinopiperidin-1-yl)azetidine-1-carboxamide] returned a Ki of less than 1 nM.
The molecule `CCOc1ncccc1[C@]1(NC(=O)N2CC(N3CCC(N(C)C4COC4)CC3)C2)C(=O)N(S(=O)(=O)c2ccc(OC)cc2OC)c2ccc(Cl)cc21` [Example 14, (S)—N-(5-Chloro-1-((2,4-dimethoxyphenyl)sulfonyl)-3-(2-ethoxypyridin-3-yl)-2-oxoindolin-3-yl)-3-(4-(methyl(oxetan-3-yl)amino)piperidin-1-yl)azetidine-1-carboxamide] showed a Ki in assay [1] of less than 1 nM.
In assay [1], `CCOc1ncccc1[C@]1(NC(=O)N2CC(N3CCC(N(C)CCOC)CC3)C2)C(=O)N(S(=O)(=O)c2ccc(OC)cc2OC)c2ccc(C#N)cc21` [Example 15, (S)—N-(5-Cyano-1-((2,4-dimethoxyphenyl)sulfonyl)-3-(2-ethoxypyridin-3-yl)-2-oxoindolin-3-yl)-3-(4-((2-methoxyethyl)(methyl)amino)piperidin-1-yl)azetidine-1-carboxamide] showed a Ki of 1 to 10 nM. In addition, the “Ki(h-V1a)/Ki(h-V1b)” value in assay [2] is reported as “+++ (>75)”.
With `CCOc1ncccc1[C@]1(NC(=O)N2CC(N3CCC(N4CCCO4)CC3)C2)C(=O)N(S(=O)(=O)c2ccc(OC)cc2OC)c2ccc(C#N)cc21` [Example 17, (S)—N-(5-Cyano-1-((2,4-dimethoxyphenyl)sulfonyl)-3-(2-ethoxypyridin-3-yl)-2-oxoindolin-3-yl)-3-(4-(isoxazolidin-2-yl)piperidin-1-yl)azetidine-1-carboxamide], in assay [1], the Ki lay in the range of 10 to 100 nM. The “Ki(h-V1a)/Ki(h-V1b)” value in assay [2] is listed as “+++ (>75)”.
In the same order, the values of `CCOc1ncccc1[C@]1(NC(=O)N2CC(N3CCC(N4CC(C5COC5)C4)CC3)C2)C(=O)N(S(=O)(=O)c2ccc(OC)cc2OC)c2ccc(C#N)cc21` [Example 18, (S)—N-(5-Cyano-1-((2,4-dimethoxyphenyl)sulfonyl)-3-(2-ethoxypyridin-3-yl)-2-oxoindolin-3-yl)-3-(4-(3-(oxetan-3-yl)azetidin-1-yl)piperidin-1-yl)azetidine-1-carboxamide] are less than 1 nM and “+++ (>75)”.
In the same order, the values of `CCOc1ncccc1[C@]1(NC(=O)N2CC(N3CCC(N4CC5(COC5)C4)CC3)C2)C(=O)N(S(=O)(=O)c2ccc(OC)cc2OC)c2ccc(C#N)cc21` [Example 19, (S)-3-(4-(2-Oxa-6-azaspiro[3.3]heptan-6-yl)piperidin-1-yl)-N-(5-cyano-1-((2,4-dimethoxyphenyl)sulfonyl)-3-(2-ethoxypyridin-3-yl)-2-oxoindolin-3-yl)azetidine-1-carboxamide] are less than 1 nM and “+++ (>75)”.
The like results for `COc1ccc(S(=O)(=O)N2C(=O)[C@@](NC(=O)N3CC(N4CCC(NC5COC5)CC4)C3)(c3cccnc3OC)c3cc(C#N)ccc32)c(OC)c1` [Example 20, (S)—N-(5-Cyano-1-((2,4-dimethoxyphenyl)sulfonyl)-3-(2-methoxypyridin-3-yl)-2-oxoindolin-3-yl)-3-(4-(oxetan-3-ylamino)piperidin-1-yl)azetidine-1-carboxamide] were, in that order, 1 to 10 nM and “+ (10-<25)”.
`COc1ccc(S(=O)(=O)N2C(=O)[C@@](NC(=O)N3CC(N4CCC(N(C)C5CCOCC5)CC4)C3)(c3cccnc3OC)c3cc(C#N)ccc32)c(OC)c1` [Example 21, (S)—N-(5-Cyano-1-((2,4-dimethoxyphenyl)sulfonyl)-3-(2-methoxypyridin-3-yl)-2-oxoindolin-3-yl)-3-(4-(methyl(tetrahydro-2H-pyran-4-yl)amino)piperidin-1-yl)azetidine-1-carboxamide] showed an inhibition constant (Ki) in assay [1] of less than 1 nM. Further, the “Ki(h-V1a)/Ki(h-V1b)” value in assay [2] is recorded as “+ (10-<25)”.
`CCOc1ncccc1[C@]1(NC(=O)N2CC(N3CCC(N4CCOCC4)CC3)C2)C(=O)N(S(=O)(=O)c2ccc(F)cc2F)c2ccc(C#N)cc21` [Example 26, (S)—N-(5-Cyano-1-((2,4-difluorophenyl)sulfonyl)-3-(2-ethoxypyridin-3-yl)-2-oxoindolin-3-yl)-3-(4-morpholinopiperidin-1-yl)azetidine-1-carboxamide]: in assay [1], the Ki is 1 to 10 nM.
